ChEMBL document CHEMBL4007467, “Effects of 6-paradol, an unsaturated ketone from gingers, on cytochrome P450-mediated drug metabolism” (Bioorg Med Chem Lett, 2017)

How the values were obtained:
Assay type in all cases: ADME
CYP2C8 [1] = target: T1, CYP2C8 (Homo sapiens, UniProt P10632); assay: Inhibition of CYP2C8 in human liver microsomes assessed as enzyme-mediated metabolite formation at 1 uM using paclitaxel as substrate incubated for 5 mins followed by NADPH addition measured after 30 mins by LC-MS/MS analysis relative to control; design: scale not given: the % may be the effect or the level left; conditions: probe paclitaxel, read-out: Activity
T1 sequence (P10632 whole entry): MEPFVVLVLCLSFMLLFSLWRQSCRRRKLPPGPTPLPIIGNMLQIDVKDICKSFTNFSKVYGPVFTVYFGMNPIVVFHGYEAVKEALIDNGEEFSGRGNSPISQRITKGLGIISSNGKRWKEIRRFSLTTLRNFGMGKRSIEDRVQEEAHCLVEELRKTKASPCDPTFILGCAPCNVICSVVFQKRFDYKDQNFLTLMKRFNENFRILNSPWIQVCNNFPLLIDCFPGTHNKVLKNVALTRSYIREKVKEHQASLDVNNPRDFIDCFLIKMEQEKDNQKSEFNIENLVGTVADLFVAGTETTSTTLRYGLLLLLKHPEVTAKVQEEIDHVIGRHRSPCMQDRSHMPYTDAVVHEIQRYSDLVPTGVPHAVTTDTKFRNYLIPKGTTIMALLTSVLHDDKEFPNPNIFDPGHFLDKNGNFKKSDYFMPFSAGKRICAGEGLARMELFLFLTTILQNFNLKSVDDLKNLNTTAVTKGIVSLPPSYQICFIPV

CYP2C9 [2] = target: T2, CYP2C9 (Homo sapiens, UniProt P11712); assay: Inhibition of CYP2C9 in human liver microsomes assessed as enzyme-mediated metabolite formation at 0.1 uM using diclofenac as substrate incubated for 5 mins followed by NADPH addition measured after 30 mins by LC-MS/MS analysis relative to control; design: scale not given: the % may be the effect or the level left; conditions: probe diclofenac, read-out: Activity
CYP2C19 [3] = target: T3, CYP2C19 (Homo sapiens, UniProt P33261); assay: Inhibition of CYP2C19 in human liver microsomes assessed as enzyme-mediated metabolite formation at 0.1 uM using (S)-mephenytoin as substrate incubated for 5 mins followed by NADPH addition measured after 30 mins by LC-MS/MS analysis relative to control; design: scale not given: the % may be the effect or the level left; conditions: probe (S)-mephenytoin, read-out: Activity
CYP2C19 [4] = target: T3, CYP2C19; assay: Inhibition of CYP2C19 in human liver microsomes assessed as enzyme-mediated metabolite formation at 10 uM using (S)-mephenytoin as substrate incubated for 5 mins followed by NADPH addition measured after 30 mins by LC-MS/MS analysis relative to control; design: scale not given: the % may be the effect or the level left; conditions: probe (S)-mephenytoin, read-out: Activity
Cytochrome P450 2C19 = Cytochrome P450 2C19 (Homo sapiens, UniProt P33261); assay: Inhibition of CYP2C19 in human liver microsomes assessed as enzyme-mediated metabolite formation using (S)-mephenytoin as substrate incubated for 5 mins followed by NADPH addition measured after 30 mins by LC-MS/MS analysis
CYP2D6 [5] = target: T4, CYP2D6 (Homo sapiens, UniProt P10635); assay: Inhibition of CYP2D6 in human liver microsomes assessed as enzyme-mediated metabolite formation at 30 uM using dextromethorphan as substrate incubated for 5 mins followed by NADPH addition measured after 30 mins by LC-MS/MS analysis relative to control; design: scale not given: the % may be the effect or the level left; conditions: probe dextromethorphan, read-out: Activity
CYP3A4 [6] = target: T5, CYP3A4 (Homo sapiens, UniProt P08684); assay: Inhibition of CYP3A4 in human liver microsomes assessed as enzyme-mediated metabolite formation at 10 uM using midazolam as substrate incubated for 5 mins followed by NADPH addition measured after 30 mins by LC-MS/MS analysis relative to control; design: scale not given: the % may be the effect or the level left; conditions: probe midazolam, read-out: Activity
CYP3A4 [7] = target: T5, CYP3A4; assay: Inhibition of CYP3A4 in human liver microsomes assessed as enzyme-mediated metabolite formation at 0.3 uM using testosterone as substrate incubated for 5 mins followed by NADPH addition measured after 30 mins by LC-MS/MS analysis relative to control; design: scale not given: the % may be the effect or the level left; conditions: probe testosterone, read-out: Activity
Cytochrome P450 3A4 = Cytochrome P450 3A4 (Homo sapiens, UniProt P08684); assay: Inhibition of CYP3A4 in human liver microsomes assessed as enzyme-mediated metabolite formation using testosterone as substrate incubated for 5 mins followed by NADPH addition measured after 30 mins by LC-MS/MS analysis
CYP2C8 [8] = target: T1, CYP2C8; assay: Inhibition of CYP2C8 in human liver microsomes assessed as enzyme-mediated metabolite formation at 0.3 uM using paclitaxel as substrate preincubated for 20 mins followed by substrate addition measured after 30 mins in presence of NADPH by LC-MS/MS analysis relative to control; design: scale not given: the % may be the effect or the level left; conditions: probe paclitaxel, read-out: Activity
CYP2C9 [9] = target: T2, CYP2C9; assay: Inhibition of CYP2C9 in human liver microsomes assessed as enzyme-mediated metabolite formation at 3 uM using diclofenac as substrate preincubated for 20 mins followed by substrate addition measured after 30 mins in presence of NADPH by LC-MS/MS analysis relative to control; design: scale not given: the % may be the effect or the level left; conditions: probe diclofenac, read-out: Activity
Cytochrome P450 2C9 = Cytochrome P450 2C9 (Homo sapiens, UniProt P11712); assay: Inhibition of CYP2C9 in human liver microsomes using diclofenac as substrate preincubated for 20 mins followed by substrate addition measured after 30 mins in presence of NADPH by LC-MS/MS analysis
CYP2D6 [10] = target: T4, CYP2D6; assay: Inhibition of CYP2D6 in human liver microsomes assessed as enzyme-mediated metabolite formation at 0.3 uM using dextromethorphan as substrate preincubated for 20 mins followed by substrate addition measured after 30 mins in presence of NADPH by LC-MS/MS analysis relative to control; design: scale not given: the % may be the effect or the level left; conditions: probe dextromethorphan, read-out: Activity
CYP2D6 [11] = target: T4, CYP2D6; assay: Inhibition of CYP2D6 in human liver microsomes assessed as enzyme-mediated metabolite formation at 30 uM using dextromethorphan as substrate preincubated for 20 mins followed by substrate addition measured after 30 mins in presence of NADPH by LC-MS/MS analysis relative to control; design: scale not given: the % may be the effect or the level left; conditions: probe dextromethorphan, read-out: Activity
Cytochrome P450 1A2 = target: T6, Cytochrome P450 1A2 (Homo sapiens, UniProt P05177); assay: Inhibition of human CYP1A2 using phenacetin as substrate incubated for 5 mins followed by NADPH addition measured after 30 mins by LC-MS/MS analysis
T6 sequence (P05177 whole entry): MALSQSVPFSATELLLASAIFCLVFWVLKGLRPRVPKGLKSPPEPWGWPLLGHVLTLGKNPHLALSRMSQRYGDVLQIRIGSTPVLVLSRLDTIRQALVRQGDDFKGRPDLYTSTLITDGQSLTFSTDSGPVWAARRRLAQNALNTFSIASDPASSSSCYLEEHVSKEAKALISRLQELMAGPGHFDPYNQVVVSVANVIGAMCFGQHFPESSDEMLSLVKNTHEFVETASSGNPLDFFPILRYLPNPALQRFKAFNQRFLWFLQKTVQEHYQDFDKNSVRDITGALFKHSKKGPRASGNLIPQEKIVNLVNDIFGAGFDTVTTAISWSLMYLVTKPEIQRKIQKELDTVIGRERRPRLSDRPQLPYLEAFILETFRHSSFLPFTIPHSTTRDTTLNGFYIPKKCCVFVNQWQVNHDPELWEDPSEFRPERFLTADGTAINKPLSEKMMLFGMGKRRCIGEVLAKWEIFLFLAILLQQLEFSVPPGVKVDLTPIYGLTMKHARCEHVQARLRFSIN

T4 sequence (P10635 whole entry): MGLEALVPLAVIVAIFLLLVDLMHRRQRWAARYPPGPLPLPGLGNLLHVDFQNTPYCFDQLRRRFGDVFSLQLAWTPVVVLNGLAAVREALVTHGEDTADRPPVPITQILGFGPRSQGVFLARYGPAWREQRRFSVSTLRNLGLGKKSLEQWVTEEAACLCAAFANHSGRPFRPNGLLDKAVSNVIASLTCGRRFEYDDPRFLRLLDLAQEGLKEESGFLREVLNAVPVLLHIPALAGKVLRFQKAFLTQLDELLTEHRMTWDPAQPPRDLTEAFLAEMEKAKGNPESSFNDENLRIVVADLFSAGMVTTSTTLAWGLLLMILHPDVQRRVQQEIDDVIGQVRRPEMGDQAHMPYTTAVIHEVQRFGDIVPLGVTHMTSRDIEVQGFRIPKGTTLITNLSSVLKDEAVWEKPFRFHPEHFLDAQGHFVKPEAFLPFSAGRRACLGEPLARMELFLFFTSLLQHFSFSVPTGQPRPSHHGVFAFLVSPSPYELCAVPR
T3 sequence (P33261 whole entry): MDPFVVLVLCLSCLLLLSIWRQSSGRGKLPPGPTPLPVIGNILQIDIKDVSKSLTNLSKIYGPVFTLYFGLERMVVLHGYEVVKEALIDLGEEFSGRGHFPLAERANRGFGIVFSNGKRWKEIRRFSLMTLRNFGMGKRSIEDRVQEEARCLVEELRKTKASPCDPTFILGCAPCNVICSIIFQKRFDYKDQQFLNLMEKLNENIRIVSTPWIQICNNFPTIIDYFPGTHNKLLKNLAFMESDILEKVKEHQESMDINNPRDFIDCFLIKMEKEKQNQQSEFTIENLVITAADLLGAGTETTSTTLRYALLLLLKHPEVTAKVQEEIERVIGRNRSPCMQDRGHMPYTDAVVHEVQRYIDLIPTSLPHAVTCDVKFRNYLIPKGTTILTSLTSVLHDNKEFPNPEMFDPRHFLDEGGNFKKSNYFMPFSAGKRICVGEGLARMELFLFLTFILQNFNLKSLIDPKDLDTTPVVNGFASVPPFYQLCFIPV
T2 sequence (P11712 whole entry): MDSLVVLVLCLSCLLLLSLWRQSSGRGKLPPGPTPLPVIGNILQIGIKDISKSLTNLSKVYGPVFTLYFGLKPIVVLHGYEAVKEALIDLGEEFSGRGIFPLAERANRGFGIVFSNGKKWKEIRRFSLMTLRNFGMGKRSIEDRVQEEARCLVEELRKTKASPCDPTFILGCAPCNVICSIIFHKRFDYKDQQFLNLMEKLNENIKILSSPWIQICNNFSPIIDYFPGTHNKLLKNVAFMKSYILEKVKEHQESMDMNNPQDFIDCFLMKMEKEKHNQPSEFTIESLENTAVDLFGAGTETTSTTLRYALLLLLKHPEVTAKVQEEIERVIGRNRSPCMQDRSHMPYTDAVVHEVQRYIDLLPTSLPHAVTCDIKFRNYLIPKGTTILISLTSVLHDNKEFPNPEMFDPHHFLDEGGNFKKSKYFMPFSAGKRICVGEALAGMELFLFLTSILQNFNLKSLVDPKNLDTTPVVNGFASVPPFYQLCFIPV
T5 sequence (P08684 whole entry): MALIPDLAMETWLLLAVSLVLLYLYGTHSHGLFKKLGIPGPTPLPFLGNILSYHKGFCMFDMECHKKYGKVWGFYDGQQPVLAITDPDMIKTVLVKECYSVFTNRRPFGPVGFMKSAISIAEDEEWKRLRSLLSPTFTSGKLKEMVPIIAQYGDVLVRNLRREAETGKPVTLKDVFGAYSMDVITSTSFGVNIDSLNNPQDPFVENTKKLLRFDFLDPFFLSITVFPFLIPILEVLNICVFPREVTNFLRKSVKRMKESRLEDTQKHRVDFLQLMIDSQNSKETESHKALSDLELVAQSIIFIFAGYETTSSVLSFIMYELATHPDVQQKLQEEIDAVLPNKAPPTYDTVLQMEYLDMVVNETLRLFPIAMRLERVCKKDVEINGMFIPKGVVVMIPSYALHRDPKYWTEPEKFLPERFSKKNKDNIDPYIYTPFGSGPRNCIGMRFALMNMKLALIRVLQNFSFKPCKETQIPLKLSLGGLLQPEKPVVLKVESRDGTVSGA
Sequence of Cytochrome P450 2C19 (P33261 whole entry): as the sequence (P33261 whole entry) above
Sequence of Cytochrome P450 2C9 (P11712 whole entry): as the sequence (P11712 whole entry) above
Sequence of Cytochrome P450 3A4 (P08684 whole entry): as the sequence (P08684 whole entry) above

activity at 0.5 h, 1 µM (CYP2C8 [1]): 68.7%
activity at 0.5 h, 0.1 µM (CYP2C9 [2]): 120%
activity at 0.5 h, 0.1 µM (CYP2C19 [3]): 98.4%
activity at 0.5 h, 10 µM (CYP2C19 [4]): 51.5%
IC50 (Cytochrome P450 2C19): 17.6 µM
activity at 0.5 h, 30 µM (CYP2D6 [5]): 53.8%
activity at 0.5 h, 10 µM (CYP3A4 [6]): 71%
activity at 0.5 h, 0.3 µM (CYP3A4 [7]): 75.2%
IC50 (Cytochrome P450 3A4): 30 µM
activity at 0.5 h, 0.3 µM (CYP2C8 [8]): 77.2%
activity at 0.5 h, 3 µM (CYP2C9 [9]): 78.8%
IC50 (Cytochrome P450 2C9): 9.9 µM
activity at 0.5 h, 0.3 µM (CYP2D6 [10]): 87%
activity at 0.5 h, 30 µM (CYP2D6 [11]): 80.1%
IC50 (Cytochrome P450 1A2): 21.4 µM
inhibition (INH) (Cytochrome P450 1A2; human, 0.5 h): Dose-dependent effect
SMILES: CCCCCCCC(=O)CCc1ccc(O)c(OC)c1
